Assay [1] has as its system Enterobacter aerogenes (IFO-3320). As to the kind of experiment: antibacterial activity, minimum growth inhibitory concentration method (MIC method). Conditions: Klebsiella aerogenes, read-out: Minimum growth inhibitory concentration (MIC). Format: cell-based. The protocol: (§1) The antibacterial activity was tested by the minimum growth inhibitory concentration method (MIC method).
(§2) A commercially available heart infusion agar medium (to be abbreviated HIA medium) was used as an assay medium, and a commercially available trypto-soy bouillon medium (to be abbreviated TSB) was used as a medium for the growth of test bacterial strains.
(§3) The test compound was diluted with the melted HIA medium to 100 μg/ml as a maximum concentration, and then serially diluted doubly. The dilutions were poured into sterilized Petri dishes respectively and allowed to cool and solidify to prepare plates containing the test compound.
(§4) As a control, carbenicillin sodium (CB-PC) was used.
(§5) The test strain was cultivated in the TBS medium at 37° C. for 18 hours, and the culture broth was diluted with a freshly prepared TBS medium to 50 to 500 times, and one platinum loopful of the dilution was inoculated in each of the plates containing the test compound. The plate was incubated at 37° C. for 18 hours. The state of growth of the strain on the plate was observed, and the minimum growth inhibitory concentration (MIC) of the compound was determined.

The next assay concerns Escherichia coli (K-12). The description is as above. Format: cell-based. Conditions: HIA medium, 37° C., 18 hours. The protocol:
as §1, §2, §3, §4, §5

Assay [2] has as its system Klebsiella pneumoniae (ATCC 10031). Described as above. Format: cell-based. The note with it: ATCC10031, HIA medium, 37° C., 18 hours. The protocol:
as §1, §2, §3, §4, §5

A further assay concerns Proteus vulgaris (OX-19). The assay is described as above. Format: cell-based. Conditions: HIA medium, 37° C., 18 hours. On the procedure: as §1, §2, §3, §4, §5
For assay [3], the system named is Pseudomonas aeruginosa (395). The assay is described as above. Format: cell-based. The note with it: HIA medium, 37° C., 18 hours. On the procedure: as §1, §2, §3, §4, §5
Assay [4] deals with Pseudomonas aeruginosa (IFO-3901). The description is as above. Format: cell-based. The note with it: IFO3901, HIA medium, 37° C., 18 hours. The protocol: as §1, §2, §3, §4, §5
Assay [5] deals with Salmonellaenteritidis (KB-21). The description is as above. Format: cell-based. The note with it: read-out: Minimum growth inhibitory concentration (MIC). The protocol: as §1, §2, §3, §4, §5
Assay [6] deals with Serratia marcescens (S-33). The description is as above. Format: cell-based. Conditions: HIA medium, 37° C., 18 hours. On the procedure:
as §1, §2, §3, §4, §5

A further assay has as its system Shigella flexneri (K-A). The assay is described as above. Format: cell-based. Conditions: HIA medium, 37° C., 18 hours. The protocol:
as §1, §2, §3, §4, §5

Assay [7] has as its system Staphylococcus aureus (FDA 209P). The assay is described as above. Format: cell-based. Conditions: FDA209P, read-out: Minimum growth inhibitory concentration (MIC). On the procedure: as §1, §2, §3, §4, §5
In assay [8] the test system is Staphylococcus aureus (Y-8). Described as above. Format: cell-based. The note with it: HIA medium, 37° C., 18 hours. On the procedure:
as §1, §2, §3, §4, §5

A further assay has as its system Pseudomonas aeruginosa. Conditions: in words, background literature; cited from earlier work.
The mark [9] stands for this setting: IFO3320, Enterobacter aerogenes (IFO-3320), HIA medium, 37° C., 18 hours.
[10] abbreviates: Salmonellaenteritidis (KB-21), HIA medium, 37° C., 18 hours.

The text below walks through data of patent US4263302A, “Quinolinecarboxylic acid substituted penicillins and pharmaceutical compositions containing the same” (Mitsui Toatsu Chemicals, Incorporated, priority 1978, dated 1981).

SMILES strings stand for the structures. In brackets after ≈: the same amount, converted by molar mass. Read-outs that look alike come from different tables or passages of the source. Where only a bound is given, the exact number is not on record here.

On to `CC1(C)S[C@@H]2[C@H](NC(=O)C(C(=O)O)c3ccccc3)C(=O)N2[C@H]1C(=O)O` (stereo partly drawn) [CB--PC, disodium-α-carboxybenzyl penicillin, reference compound], for which the MIC is 1.56 µg/mL in assay [1] (IFO3320, 18 h); 6.25 µg/mL against Escherichia coli (K-12); more than 100 µg/mL in assay [2]; 3.13 µg/mL against Proteus vulgaris (OX-19); 25 µg/mL in assay [3]; 100 µg/mL in assay [4]. Moreover, the MIC in [5] (18 h) worked out at 1.56 µg/mL; in assay [6], 3.13 µg/mL; in the assay on Shigella flexneri (K-A) it was 1.56 µg/mL; in assay [7] (Staphylococcus aureus, 18 h), 1.56 µg/mL; in [8], 6.25 µg/mL. The “activity on Pseudomonas aeruginosa” value in the assay with Pseudomonas aeruginosa is “low activity”. In addition, the “effect on Pseudomonas aeruginosa-induced infections of difficultly-curable nature” value with Pseudomonas aeruginosa is “ineffective”.

As for `CC1(C)CC(=O)c2c([nH]cc(C(=O)N[C@@H](C(=O)N[C@@H]3C(=O)N4[C@@H]3SC(C)(C)[C@@H]4C(=O)O)c3ccccc3)c2=O)C1` [Synthesis Example 1, 6-[D-(-)-α-(7,7-dimethyl-4,5-dioxo-1,4,5,6,7,8-hexahydroquinoline-3-carboxamido)phenylacetamido]-penicillanic acid], the MIC in [1] (setting [9]) stood at 0.78 µg/mL (≈ 1.38 µM); in the assay on Escherichia coli (K-12), 0.78 µg/mL (≈ 1.38 µM); in assay [2], 12.5 µg/mL (≈ 22.1 µM); with Proteus vulgaris (OX-19), 1.56 µg/mL (≈ 2.75 µM); in assay [3], 1.56 µg/mL (≈ 2.75 µM); in assay [4], 6.25 µg/mL (≈ 11 µM). In addition, the MIC in assay [5] (setting [10]) came out at 0.39 µg/mL (≈ 0.688 µM); in assay [6], 3.13 µg/mL (≈ 5.52 µM); against Shigella flexneri (K-A), 0.39 µg/mL (≈ 0.688 µM); in assay [7] (Staphylococcus aureus, 18 h), 1.56 µg/mL (≈ 2.75 µM); in assay [8], 6.25 µg/mL (≈ 11 µM).

Take `CCn1cc(C(=O)N[C@@H](C(=O)N[C@@H]2C(=O)N3[C@@H]2SC(C)(C)[C@@H]3C(=O)O)c2ccccc2)c(=O)c2c1CCCC2=O` [Synthesis Example 2, 6-[D-(-)-α-(1-ethyl-4,5-dioxo-1,4,5,6,7,8-hexahydroquinoline-3-carboxamodo)phenylacetamido]-penicillanic acid]: the MIC came to 1.56 µg/mL (≈ 2.75 µM) in assay [1] (setting [9]); 3.13 µg/mL (≈ 5.52 µM) against Escherichia coli (K-12); 25 µg/mL (≈ 44.1 µM) in assay [2]; 3.13 µg/mL (≈ 5.52 µM) in the assay on Proteus vulgaris (OX-19); 3.13 µg/mL (≈ 5.52 µM) in assay [3]; 6.25 µg/mL (≈ 11 µM) in assay [4]. Moreover, the MIC in [5] (setting [10]) worked out at 0.78 µg/mL (≈ 1.38 µM); in assay [6], 3.13 µg/mL (≈ 5.52 µM); in the assay with Shigella flexneri (K-A), 0.78 µg/mL (≈ 1.38 µM); in assay [7] (Staphylococcus aureus (FDA 209P), HIA medium, 37° C., 18 hours), 1.56 µg/mL (≈ 2.75 µM); in assay [8], 6.25 µg/mL (≈ 11 µM).
